pIC50: −log10 of the molar value. Where two headings read alike, the source gives them in different places.
How the values were obtained:
[1] = target: T1, human Arginine Vasopressin Receptor V2 (AVPR2) (Homo sapiens, UniProt P30518); assay: Vasopressin V2 receptor antagonist assay (TR-FRET cAMP, 1321N1 cells); assay type: cell-based
T1 construct: host or cells: 1321N1 (cAMPZen V2 assay ready frozen cells)
Procedure: The purpose of the assay was to determine the inhibitory effect of synthesized compounds on the Vasopressin receptor 2. The assay was performed in commercially available 1321N1 cells expressing the human Arginine Vasopressin Receptor V2 (AVPR2) (Perkin Elmer #ES-363-CF). Arginine Vasopressin (AVP) evokes an increase in intracellular cAMP in these cells which is measured in a TR-FRET assay using a Europium cAMP tracer and ULight labelled antibody reagents contained in a LANCE Ultra cAMP kit (Perkin Elmer #TRF0263). Increases in cAMP in the assay result in a reduction in TR-FRET as the cAMP produced by the stimulated cells competes with the Eu-cAMP tracer for binding sites on the ULight labelled antibody. Test compounds were assessed for their ability to affect the magnitude of the response to AVP, with antagonists showing a concentration-dependent decrease in the AVP-mediated reduction in TR-FRET signal.
cAMPZen V2 assay ready cells were thawed at 37° C. and resuspended directly from frozen in 9 ml growth medium consisting of DMEM supplemented with 10% v/v fetal bovine serum, 1× non-essential amino acids, and 1 mM sodium pyruvate. Cells were spun at 1000 rpm for 3 minutes and the supernatant was carefully removed and discarded. The pellet was resuspended in 5 ml stimulation buffer and the cell density determined using the Vi-Cell automated cell counter. The cell suspension was diluted to a 0.2×10^6/ml suspension ready for plating. To all wells of a white 384-well Optiplate (Perkin Elmer #6007299) 5 μL of cells in stimulation buffer were dispensed (1,000 cells per well). Stimulation buffer consisted of HBSS (+Ca/+Mg) supplemented with 5 mM HEPES, 0.1% BSA stabiliser and 0.5 mM IBMX.
At the start of each assay day the potency of AVP was assessed and an EC80 concentration determined for subsequent compound profiling. Assays were performed by first an addition of 2.5 μl of control or test compound at 4× final concentration in stimulation buffer followed by 2.5 μl of AVP at 4× final concentration in stimulation buffer. After a 1 hour reaction, detection reagents were added by first an addition of 5 μl EU-cAMP tracer, followed by 5 μl ULight-anti-cAMP both diluted as per the manufacturer's instructions. After a one hour incubation, plates were ready to be read (signals then remained stable for up to 24 hours). Changes in time resolved fluorescence were monitored with excitation via a laser (337 nm) measuring both 615 nm and 665 nm emission wavelengths. […] For compound profiling, test compounds were dispensed by the Labcyte Echo (10-point curve, 1:3 dilutions) in a target 0.1 μl volume then diluted 750-fold in stimulation buffer containing 3% DMSO prior to addition to the cells. At the end of the incubation period, 2.5 μl of AVP in stimulation buffer was added at the previously determined EC80 concentration.
In-plate controls for the assay included a Tolvaptan concentration-response curve as the reference V2 antagonist and an AVP concentration-response curve to confirm the reproducibility of the EC80 used for the compound challenge.

[2] = target: T2, MDR1 (P-glycoprotein) (Homo sapiens, UniProt P08183); assay: MDR1-MDCK permeability and efflux assay (Papp, efflux ratio, effective efflux ratio); assay type: in vitro ADME; details: dog; for Papp A→B at 1 h, 10 μM: pH 7.4, read-out: Papp AB MDR1
T2 construct: host or cells: MDCK (MDR1-MDCK; wild-type MDCK as comparator)
T2 sequence (P08183 whole entry): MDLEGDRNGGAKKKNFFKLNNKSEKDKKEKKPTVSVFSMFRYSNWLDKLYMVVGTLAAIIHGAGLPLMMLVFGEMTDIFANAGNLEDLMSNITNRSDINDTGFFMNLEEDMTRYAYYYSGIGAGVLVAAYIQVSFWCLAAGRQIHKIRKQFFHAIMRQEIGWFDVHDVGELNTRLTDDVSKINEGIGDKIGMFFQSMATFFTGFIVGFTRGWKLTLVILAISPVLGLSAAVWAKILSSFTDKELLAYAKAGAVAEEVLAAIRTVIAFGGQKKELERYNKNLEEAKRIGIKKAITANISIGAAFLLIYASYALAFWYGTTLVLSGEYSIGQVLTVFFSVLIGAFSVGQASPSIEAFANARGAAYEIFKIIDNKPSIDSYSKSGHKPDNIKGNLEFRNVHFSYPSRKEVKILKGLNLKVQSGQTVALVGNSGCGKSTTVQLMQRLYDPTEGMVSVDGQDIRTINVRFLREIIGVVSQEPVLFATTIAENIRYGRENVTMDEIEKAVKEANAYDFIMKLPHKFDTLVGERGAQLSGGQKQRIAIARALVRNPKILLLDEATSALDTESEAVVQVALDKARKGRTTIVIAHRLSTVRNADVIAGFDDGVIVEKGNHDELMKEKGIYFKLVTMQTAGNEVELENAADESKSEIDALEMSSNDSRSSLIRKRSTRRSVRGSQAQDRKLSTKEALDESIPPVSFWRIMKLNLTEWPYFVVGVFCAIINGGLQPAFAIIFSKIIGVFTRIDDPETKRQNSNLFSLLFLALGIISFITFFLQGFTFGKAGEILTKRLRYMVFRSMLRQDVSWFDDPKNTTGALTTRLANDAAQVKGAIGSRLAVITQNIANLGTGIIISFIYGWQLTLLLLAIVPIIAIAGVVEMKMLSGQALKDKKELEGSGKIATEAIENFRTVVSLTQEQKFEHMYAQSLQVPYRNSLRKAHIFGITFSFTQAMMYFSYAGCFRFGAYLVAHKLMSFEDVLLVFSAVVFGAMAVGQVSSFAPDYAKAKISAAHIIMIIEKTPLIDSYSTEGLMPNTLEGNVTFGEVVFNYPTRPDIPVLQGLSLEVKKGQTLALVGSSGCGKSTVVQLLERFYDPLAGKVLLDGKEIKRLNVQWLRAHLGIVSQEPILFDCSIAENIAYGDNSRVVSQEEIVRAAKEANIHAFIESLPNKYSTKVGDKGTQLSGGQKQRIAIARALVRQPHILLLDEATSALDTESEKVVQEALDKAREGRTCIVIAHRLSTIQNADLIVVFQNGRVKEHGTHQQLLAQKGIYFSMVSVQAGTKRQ
Procedure: (§1) The MDR1-MDCK effective efflux assay was performed as described in the BioFocus Standard Operating Procedure, ADME-SOP-56. Both wild-type (WT) and MDR1-MDCK cells (Solvo Biotechnology) were seeded onto 24-well Transwell plates at 2.35×10^5 cells per well and used in confluent monolayers after a 3 day culture at 37° C. under 5% CO2. For both cell types, test and control compounds (propranolol, vinblastine) were added (10 μM, 0.1% DMSO final, n=2) to donor compartments of the Transwell plate assembly in assay buffer (Hanks balanced salt solution supplemented with 25 mM HEPES, adjusted to pH 7.4) for both apical to basolateral (A>B) and basolateral to apical (B>A) measurements. Incubations were performed at 37° C., with samples removed from both donor and acceptor chambers at T=0 and 1 hour and compound analysed by mass spectrometry (LC-MS/MS) including an analytical internal standard.
(§2) Apparent permeability (Papp) values were determined from the relationship: Papp=[CompoundAcceptor T=end]×V Acceptor/([Compound Donor T=0]×V Donor)/incubation time×V Donor/Area×60×10^−6 cm/s
(§3) In this equation, V is the volume of each Transwell compartment (apical 125 μL, basolateral 600 μL), and concentrations are the relative MS responses for compound (normalized to internal standard) in the donor chamber before incubation and acceptor chamber at the end of the incubation, and Area is the area of cells exposed for drug transfer (0.33 cm^2).
(§4) Efflux ratios (Papp B>A/Papp A>B) were calculated for each compound from the mean Papp values in each direction for both wild-type and MDR1-MDCK cells.
(§5) In order to confirm the involvement of MDR1 in any efflux seen, an “effective efflux ratio” (EER) was calculated by comparing compound efflux ratios (ER) in the two cell types by the following equation: EER=ER(MDR1-MDCK)/ER(wild-type MDCK)
(§6) This ratio illustrates the effect of the over-expressed MDR1 normalised for the background movement of compound through the wild-type cells.
(§7) Lucifer Yellow (LY) was added to the apical buffer in all wells to assess viability of the cell layer. […] Recoveries<50% indicates compound solubility, stability or binding issues, thereby reducing the reliability of a result.
(§8) The inherent ability of a potential drug molecule to penetrate the blood brain barrier and avoid efflux by transporters expressed in the brain, can be roughly correlated with the Papp(A-B) and the efflux ratio (as defined above), respectively. A potential drug molecule with an apparent permeability<7 (10^−6 cm/sec) has low permeability (+), >7 (10^−6 cm/sec) but <10 (10^−6 cm/sec) has moderate permeability (++), >10 (10^−6 cm/sec) but <20 (10^−6 cm/sec) has good permeability (+++), and >20 (10^−6 cm/sec) is highly permeable (++++). High permeability in the WT and MDCK II cell permeability assay increases the probability of blood brain barrier penetration and access to the CNS. A potential drug molecule in the above assay system with an efflux ratio or effective efflux ratio of <1 has low probability of being an efflux substrate (++++), >1 but <2 has moderate probability of being an efflux substrate (+++), >2 but <3 has has an increased probability of being an efflux substrate (++), and >3 has a high probability of being an efflux substrate (+). If a potential drug molecule is an efflux substrate, the molecule will have a low probability of reaching exposures in the brain (site of action) that will result in efficacious levels of receptor occupancy.

[3] = Wild-type MDCK permeability and efflux assay (Papp, efflux ratio); assay type: in vitro ADME; details: dog, pH 7.4, wild-type MDCK cells; for efflux ratio at 1 h, 10 μM: Papp B>A/Papp A>B, read-out: ER WT (Efflux Ratio)
Procedure: as §1, §2, §3, §4, §5, §6, §7, §8

[4] = MDCK-MDR1, pH 7.4, ER(MDR1-MDCK)/ER(wild-type MDCK), read-out: EER (Effective Efflux Ratio)
[5] = MDCK-MDR1, pH 7.4, Papp B>A/Papp A>B, MDR1-MDCK cells, read-out: ER MDR1 (Efflux Ratio)

T1 sequence (P30518 whole entry): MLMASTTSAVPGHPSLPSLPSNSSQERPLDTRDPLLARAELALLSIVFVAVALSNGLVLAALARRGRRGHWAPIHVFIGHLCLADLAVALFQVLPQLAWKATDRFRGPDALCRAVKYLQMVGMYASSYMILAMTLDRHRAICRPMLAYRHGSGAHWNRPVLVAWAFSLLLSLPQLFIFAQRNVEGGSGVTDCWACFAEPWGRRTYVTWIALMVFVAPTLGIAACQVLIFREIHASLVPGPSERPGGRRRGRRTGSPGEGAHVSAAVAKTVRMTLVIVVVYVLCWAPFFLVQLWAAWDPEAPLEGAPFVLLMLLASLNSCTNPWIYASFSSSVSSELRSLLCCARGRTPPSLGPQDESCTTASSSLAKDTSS

SMILES | pIC50 [1] | efflux ratio at 1 h, 10 μM [2, 4] | efflux ratio at 1 h, 10 μM [2, 5] | Papp A→B at 1 h, 10 μM ([2]; MDR1-MDCK cells) [×10⁻⁶ cm/s] | Papp A→B at 1 h, 10 μM [3] [×10⁻⁶ cm/s] | efflux ratio at 1 h, 10 μM [3]
O=C(N1CC2(C1)CN(c1cnccn1)C2)N1CCOc2cc(Cl)ccc21 [8-3] | ≤ 6.00 | 1 to 2 | 1 to 2 | > 20 | > 20 | < 1
Cc1cncc(N2CC3(CN(C(=O)N4c5ccc(F)cc5OCC4C)C3)C2)n1 (single isomer, unassigned) [20-2-A] | ≤ 6.00 | 1 to 2 | 1 to 2 | > 20 | > 20 | < 1
Cc1nccnc1N1CC2(CN(C(=O)N3c4ccc(Cl)cc4OCC3C)C2)C1 (single isomer, unassigned) [20-10-A] | 6.30 to 7.00 | 1 to 2 | 1 to 2 | > 20 | > 20 | < 1
O=C(N1CC2(C1)CN(c1cnccn1)C2)N1CCc2cc(Cl)ccc21 [8-14] | ≤ 6.00 | < 1 | 1 to 2 | > 20 | > 20 | 1 to 2
COc1ccnc(N2CC3(CN(C(=O)N4c5ccc(Cl)cc5OCC4C)C3)C2)n1 (stereo not shown) [20-9] | 6.30 to 7.00 | < 1 | < 1 | > 20 | > 20 | < 1
CC1COc2cc(Cl)c(F)cc2N1C(=O)N1CC2(C1)CN(c1cccnn1)C2 (single isomer, unassigned) [19-4-A] | ≤ 6.00 | 2 to 3 | 2 to 3 | > 20 | > 20 | 1 to 2
CC1COc2cc(Cl)ccc2N1C(=O)N1CC2(C1)CN(c1ncccn1)C2 (single isomer, unassigned) [1-83-B, (7-chloro-3-methyl-2,3-dihydro-4H-benzo[b][1,4]oxazin-4-yl)(6-(pyrimidin-2-yl)-2,6-diazaspiro[3.3]heptan-2-yl)methanone] | ≤ 6.00 | 1 to 2 | 1 to 2 | > 20 | > 20 | < 1
CC1COc2cc(Cl)ccc2N1C(=O)N1CC2(C1)CN(c1cccnc1)C2 (stereo not shown) [20-1, (7-chloro-3-methyl-2,3-dihydro-4H-benzo[b][1,4]oxazin-4-yl)(6-(pyridin-3-yl)-2,6-diazaspiro[3.3]heptan-2-yl)methanone] | ≤ 6.00 | – | – | – | – | –
Cc1nc(N2CC3(CN(C(=O)N4CCOc5cc(Cl)ccc54)C3)C2)ncc1F [6-1, (7-chloro-2,3-dihydro-4H-benzo[b][1,4]oxazin-4-yl)(6-(5-fluoro-4-methylpyrimidin-2-yl)-2,6-diazaspiro[3.3]heptan-2-yl)methanone] | ≤ 6.00 | – | – | – | – | –
CC1COc2cc(Cl)ccc2N1C(=O)N1CC2(C1)CN(c1cccnn1)C2 (single isomer, unassigned) [9-1-A] | ≤ 6.00 | – | – | – | – | –
Cc1ccnc(N2CC3(CN(C(=O)N4c5ccc(Cl)cc5OCC4C)C3)C2)n1 (stereo not shown) [20-12] | > 7.00 | – | – | – | – | –
CC1COc2cc(F)ccc2N1C(=O)N1CC2(C1)CN(c1ncc(F)cn1)C2 (single isomer, unassigned) [18-4-B] | ≤ 6.00 | – | – | – | – | –
O=C(N1CC2(C1)CN(c1cnccn1)C2)N1CCC(O)c2cc(Cl)ccc21 (single isomer, unassigned) [13-3-A] | ≤ 6.00 | – | – | – | – | –
Cc1ccnc(N2CC3(CN(C(=O)N4CCOc5cc(Cl)ccc54)C3)C2)c1 [1-14] | ≤ 6.00 | – | – | – | – | –
CCC1COc2cc(Cl)ccc2N1C(=O)N1CC2(C1)CN(c1ccccn1)C2 (stereo not shown) [11-1, (7-chloro-3-ethyl-2,3-dihydro-4H-benzo[b][1,4]oxazin-4-yl)(6-(pyridin-2-yl)-2,6-diazaspiro[3.3]heptan-2-yl)methanone] | > 7.00 | – | – | – | – | –
O=C(N1CC2(C1)CN(c1noc3ccccc13)C2)N1CCOc2cc(Cl)ccc21 [4-1, (6-(benzo[d]isoxazol-3-yl)-2,6-diazaspiro[3.3]heptan-2-yl)(7-chloro-2,3-dihydro-4H-benzo[b][1,4]oxazin-4-yl)methanone] | ≤ 6.00 | – | – | – | – | –
CC1COc2cc(F)c(F)cc2N1C(=O)N1CC2(C1)CN(c1ccc(F)cn1)C2 (single isomer, unassigned) [19-5-B] | > 7.00 | – | – | – | – | –
COc1ccnc(N2CC3(CN(C(=O)N4CCOc5cc(Cl)ccc54)C3)C2)c1 [1-15] | ≤ 6.00 | – | – | – | – | –
O=C(N1CC2(C1)CN(c1ccccn1)C2)N1CCC(O)c2cc(Cl)ccc21 (single isomer, unassigned) [13-2-A] | ≤ 6.00 | – | – | – | – | –
CC1COc2cc(F)c(F)cc2N1C(=O)N1CC2(C1)CN(c1cccnn1)C2 (single isomer, unassigned) [19-3-B] | ≤ 6.00 | – | – | – | – | –
